Assays:
LNCAP [1] = test: Cell differentiation, PSA production in LNCaP; type: cell-based, human; details: 10^−11 M to 10^−7 M, 6-7 days
Description: Using the techniques of Skowronski et al., 132 Endocrinology (1993) 1952-1960 and 136 Endocrinology (1995) 20-26, both of which are incorporated herein by reference, cells of the cell line, LNCaP, which is derived from a human metastatic prostate adenocarcinoma and known to express PSA, are seeded in six-well tissue culture plates at a density of about 50,000 cells/plate. After the cells have attached and stabilized, about 2-3 days, the medium is replenished with medium containing vehicle or the active vitamin D analogue, 1α,24-(OH)2D2, at concentrations from 10^−11 M to 10^−7 M. After 6-7 days, medium is removed and stored at −20° C. for prostate specific antigen (PSA) analysis.
The cells from parallel cultures are rinsed, precipitated, and the amount of DNA determined by standard procedures. PSA is measured by standard known methods.

[2] = test system: advanced androgen-independent prostate cancer; test: Treatment of advanced androgen-independent prostate cancer, open-labeled study; type: in vivo, human; details: for progression of metastatic disease: after one and two years
Text: Patients with advanced androgen-independent prostate cancer participate in an open- labeled study of 1α,24-(OH)2D2. […] On admission to the study, patients begin a course of therapy with oral 1α,24-(OH)2D2 lasting 26 weeks, while discontinuing any previous use of calcium supplements, vitamin D supplements, and vitamin D hormone replacement therapies. During treatment, the patients are monitored at regular intervals for: (1) hypercalcemia, hyperphosphatemia, hypercalciuria, hyperphosphaturia and other toxicity; (2) evidence of changes in the progression of metastatic disease; and (3) compliance with the prescribed test drug dosage.
The study is conducted in two phases. During the first phase, the maximal tolerated dosage (MTD) of daily oral 1α,24-(OH)2D2 is determined by administering progressively higher dosages to successive groups of patients. All doses are administered in the morning before breakfast. […] Subsequent groups of patients are treated with 50.0, 75.0 and 100.0 μg/day.
During the second phase, patients are treated with 1α,24-(OH)2D2 for 24 months at 0.5 and 1.0 times the MTD.

PC-3 = test: Inhibition of cell proliferation, PC-3; type: cell-based, human; details: 10^−11 M to 10^−7 M, 6-7 days
Description: (§1) The cell lines, LNCAP and PC-3, which are derived from human prostate adenocarcinoma, are seeded in six-well tissue culture plates at a density of about 50,000 cells/plate. After the cells have attached and stabilized, about 2-3 days, the medium is replenished with medium containing vehicle or the active vitamin D analogue 1α,24-(OH)2D2, at concentrations from 10^−11 M to 10^−7 M. Medium containing test analogue or vehicle is replaced every three days. After 6-7 days, the medium is removed, the cells are rinsed, precipitated with cold 5% trichloroacetic acid, and washed with cold ethanol. The cells are solubilized with 0.2 N sodium hydroxide, and the amount of DNA determined by standard procedures.

LNCAP [3] = test: Inhibition of cell proliferation, LNCAP; type: cell-based, human; details: 10^−11 M to 10^−7 M, 6-7 days
Description: as §1

**Q.** `C=C1/C(=C\C=C2/CCC[C@]3(C)[C@@H]([C@H](C)/C=C/C(C)(O)C(C)C)CC[C@@H]23)C[C@@H](O)C[C@@H]1O` (relative stereo) [1α,24-(OH)2D2, 5,6-cis-1α,24-dihydroxyvitamin D2] was tested. Which “PSA expressed as mass of PSA/cell versus control cultures” value (LNCAP [1]) did it give?
**A.** significantly more PSA than control cultures

**Q.** And the “bone pain associated with metastatic disease” value ([2]; MTD for at least six months)?
**A.** significantly diminished

**Q.** What about the “maximum levels of circulating 1α,24-(OH)2D2” value ([2]; at the highest dosages) of the same compound?
**A.** above 100 pg/mL

**Q.** And the “circulating levels of 1α,25-(OH)2D3” value ([2]; during treatment)?
**A.** suppressed, often to undetectable levels

**Q.** What about the “progression of metastatic disease” value ([2]; higher dosage (1.0 times the MTD)) of the same compound?
**A.** stable disease and partial or complete remission in many patients

**Q.** What about the “levels of circulating 1α,24-(OH)2D2 versus dosage” value ([2]; in vivo) of the same compound?
**A.** increase proportionately with the dosage administered

**Q.** And the “serum and urine calcium” value ([2]; in vivo)?
**A.** elevated in a dose responsive manner

**Q.** What about the “progression of metastatic disease” value ([2]; lower dosage (0.5 times the MTD)) of the same compound?
**A.** stable disease or partial remission in many patients

**Q.** And the “cell number (amount of DNA) versus control cultures” value (PC-3)?
**A.** significantly fewer cells than the control cultures

**Q.** And the “cell number (amount of DNA) versus control cultures” value (LNCAP [3])?
**A.** significantly fewer cells than the control cultures

Reference: patent US6538037B2, “Methods for preparation and use of 1α,24(S)-dihydroxyvitamin D2” (Bone Care International, Inc., priority 1991, dated 2003)
